{
  "source": "ChEMBL document CHEMBL1201862",
  "about": "“PubChem BioAssay data set” (2004)",
  "key": {"[1]": {"biological_target": "Protein disulfide-isomerase (Homo sapiens, UniProt P07237)", "sequence (P07237 whole entry)": "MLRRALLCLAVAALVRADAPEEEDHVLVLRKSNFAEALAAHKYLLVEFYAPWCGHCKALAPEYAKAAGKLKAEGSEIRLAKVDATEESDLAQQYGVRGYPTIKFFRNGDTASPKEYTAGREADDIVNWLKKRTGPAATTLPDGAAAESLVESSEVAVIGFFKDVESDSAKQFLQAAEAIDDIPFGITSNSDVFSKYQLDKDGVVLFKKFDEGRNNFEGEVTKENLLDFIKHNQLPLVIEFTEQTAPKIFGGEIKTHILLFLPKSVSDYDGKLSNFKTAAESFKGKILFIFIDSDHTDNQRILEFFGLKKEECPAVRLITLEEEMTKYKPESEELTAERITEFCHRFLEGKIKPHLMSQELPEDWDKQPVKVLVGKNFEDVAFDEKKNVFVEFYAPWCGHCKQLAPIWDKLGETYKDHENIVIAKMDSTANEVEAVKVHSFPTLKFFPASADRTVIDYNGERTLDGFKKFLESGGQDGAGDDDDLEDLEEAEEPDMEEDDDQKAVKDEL", "test": "inhibition of PDI-driven insulin aggregation – biochemical, turbidity, absorbance, cherry-picked samples, dose response (AID 602350)", "type": "functional"}, "[2]": {"test": "fluconazole-exposed Candida albicans growth modulators – fluorescence, retest, confirmation (AID 2467)", "type": "functional, cell-based"}, "[3]": {"test": "NIH3T3 cell viability loss – ATP luminescence, mouse fibroblasts, counter-screen, dose response (AID 2010);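 further: cells exposed to compound for about 90 hours before reading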", "type": "functional, cell-based"}, "[4]": {"biological_target": "T1, High affinity choline transporter 1 (Homo sapiens, UniProt Q9GZV3)", "T1 sequence (Q9GZV3 whole entry)": "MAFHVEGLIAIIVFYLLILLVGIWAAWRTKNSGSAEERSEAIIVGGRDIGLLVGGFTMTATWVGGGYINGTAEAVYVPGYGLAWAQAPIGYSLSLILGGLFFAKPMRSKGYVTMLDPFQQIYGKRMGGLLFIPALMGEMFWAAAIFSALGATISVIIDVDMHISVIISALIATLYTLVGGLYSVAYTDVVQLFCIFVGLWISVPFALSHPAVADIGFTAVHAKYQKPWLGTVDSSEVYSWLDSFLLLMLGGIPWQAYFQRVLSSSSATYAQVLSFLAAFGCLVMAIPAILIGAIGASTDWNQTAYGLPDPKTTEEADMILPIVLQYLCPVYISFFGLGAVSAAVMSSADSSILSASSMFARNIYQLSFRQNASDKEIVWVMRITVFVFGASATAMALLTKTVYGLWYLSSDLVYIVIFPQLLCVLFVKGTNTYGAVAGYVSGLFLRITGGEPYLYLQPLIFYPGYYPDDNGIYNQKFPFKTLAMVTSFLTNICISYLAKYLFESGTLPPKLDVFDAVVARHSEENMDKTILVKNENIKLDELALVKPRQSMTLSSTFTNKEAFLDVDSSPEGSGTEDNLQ", "test": "human choline transporter potentiators, potency – cell-based, 10-point CRC, membrane potential dye, dose response (AID 602376)", "type": "functional"}, "[5]": {"tested_on": "INS1", "test": "INS-1E survival protection against cytokine death – cell-based, luminescence, retest, dose response (AID 449756);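 further: cell death triggered by IL-1 beta plus TNF-alpha plus IFN-gamma mixture; protective hits raise ATP signal compared with cytokine alone wells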", "type": "functional", "conditions": "Rattus norvegicus"}, "[6]": {"test": "NIH-3T3 fibroblast cytotoxicity, dose response, cytotoxicity control, cell-based, fluorescence, Alamar Blue, secondary assay (AID 2327);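 further: NIH-3T3 mouse fibroblasts cultured with fluconazole at 8 µg/mL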", "type": "functional"}, "[7]": {"test": "Trypanosoma cruzi growth suppression in host cells – NIH3T3 host cells, beta-gal luminescence, confirmation (AID 2044);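 further: intracellular parasites grown in NIH/3T3 mouse fibroblasts as host cells; luminescent beta-galactosidase reporter signal from transgenic T. cruzi replicating inside host cells; inhibitors lower the luminescence signal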", "type": "functional, cell-based"}, "[8]": {"biological_target": "T2, Orexin receptor type 2 (Homo sapiens, UniProt O43614)", "T2 sequence (O43614 whole entry)": "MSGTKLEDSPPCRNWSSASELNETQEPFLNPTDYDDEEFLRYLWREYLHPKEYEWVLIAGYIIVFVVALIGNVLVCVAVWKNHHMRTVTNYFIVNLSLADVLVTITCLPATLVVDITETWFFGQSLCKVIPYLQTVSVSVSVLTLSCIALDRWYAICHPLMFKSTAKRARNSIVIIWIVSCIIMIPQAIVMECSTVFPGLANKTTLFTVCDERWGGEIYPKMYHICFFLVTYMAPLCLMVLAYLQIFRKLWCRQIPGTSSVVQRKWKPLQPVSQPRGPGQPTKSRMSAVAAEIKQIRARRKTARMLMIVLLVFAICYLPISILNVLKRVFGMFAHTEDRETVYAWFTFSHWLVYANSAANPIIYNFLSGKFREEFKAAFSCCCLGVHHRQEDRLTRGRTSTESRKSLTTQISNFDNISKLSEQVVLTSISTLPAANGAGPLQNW", "test": "Counterscreen assay for antagonists of the orexin 1 receptor (OX1R; HCRTR1): Fluorescence-based cell-based dose response assay for antagonists of the orexin 2 receptor (OX2R; HCRTR2), run by assay provider.", "type": "functional"}, "[9]": {"biological_target": "T3, Orexin/Hypocretin receptor type 1 (Homo sapiens, UniProt O43613)", "T3 sequence (O43613 whole entry)": "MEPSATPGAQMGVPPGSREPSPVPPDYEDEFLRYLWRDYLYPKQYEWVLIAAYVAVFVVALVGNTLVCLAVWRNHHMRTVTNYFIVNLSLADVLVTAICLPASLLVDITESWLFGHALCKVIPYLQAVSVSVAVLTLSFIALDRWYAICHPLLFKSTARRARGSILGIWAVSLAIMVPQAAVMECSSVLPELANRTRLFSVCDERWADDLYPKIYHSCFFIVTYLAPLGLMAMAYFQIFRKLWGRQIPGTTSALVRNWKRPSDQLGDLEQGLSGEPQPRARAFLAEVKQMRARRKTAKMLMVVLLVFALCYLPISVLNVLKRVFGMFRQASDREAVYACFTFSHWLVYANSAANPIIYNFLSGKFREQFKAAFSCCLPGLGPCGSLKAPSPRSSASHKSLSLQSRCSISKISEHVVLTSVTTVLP", "test": "Homogeneous Time Resolved Fluorescence (HTRF)-based cell-based high throughput dose response assay for antagonists of the orexin 1 receptor (OX1R; HCRTR1). [Related pubchem assays (depositor defined):AID434989, AID435008, AID463079, AID485270, AID492963, AID492964, AID492965, AID493232, AID504717, AID504718]", "type": "functional"}, "[10]": {"biological_target": "T2, Orexin receptor type 2", "test": "Counterscreen assay for antagonists of the orexin 1 receptor (OX1R; HCRTR1): Homogeneous Time Resolved Fluorescence (HTRF)-based cell-based dose response assay for antagonists of the orexin 2 receptor (OX2R; HCRTR2), run by assay provider.", "type": "functional"}, "[11]": {"test": "(§1) Counterscreen for antagonists of the orexin 1 receptor (OX1R; HCRTR1): Fluorescence-based cell-based high throughput dose response assay to identify antagonists of the parental CHO cell line. [Related pubchem assays (depositor defined):AID434989, AID435008, AID463079, AID485270, AID492963, AID492964, AID492965, AID493232, AID504699, AID504701]", "type": "functional"}, "[12]": {"biological_target": "T4, Corticotropin-releasing factor receptor 2/Corticotropin-releasing factor-binding protein (Homo sapiens, UniProt P24387+Q13324)", "T4 sequence (Q13324 whole entry)": "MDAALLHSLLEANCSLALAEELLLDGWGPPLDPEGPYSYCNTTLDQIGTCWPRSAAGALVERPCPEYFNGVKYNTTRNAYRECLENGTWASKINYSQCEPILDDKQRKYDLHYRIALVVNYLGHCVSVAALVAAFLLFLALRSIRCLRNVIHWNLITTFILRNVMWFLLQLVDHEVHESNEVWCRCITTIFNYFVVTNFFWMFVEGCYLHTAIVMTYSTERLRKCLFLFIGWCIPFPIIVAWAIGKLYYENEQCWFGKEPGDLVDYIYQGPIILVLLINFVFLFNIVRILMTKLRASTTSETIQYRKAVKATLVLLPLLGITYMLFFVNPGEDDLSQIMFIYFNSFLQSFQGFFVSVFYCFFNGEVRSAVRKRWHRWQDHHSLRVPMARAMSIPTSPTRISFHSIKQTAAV", "T4 sequence (P24387 whole entry)": "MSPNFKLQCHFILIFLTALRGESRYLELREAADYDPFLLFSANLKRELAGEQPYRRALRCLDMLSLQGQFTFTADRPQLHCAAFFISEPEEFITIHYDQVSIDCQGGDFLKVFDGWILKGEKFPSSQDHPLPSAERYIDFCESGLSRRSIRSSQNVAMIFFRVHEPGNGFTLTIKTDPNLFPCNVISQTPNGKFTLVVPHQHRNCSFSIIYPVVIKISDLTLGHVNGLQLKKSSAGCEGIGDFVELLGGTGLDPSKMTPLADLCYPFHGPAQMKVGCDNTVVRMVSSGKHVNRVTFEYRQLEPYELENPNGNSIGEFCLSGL", "test": "activators of CRF receptor 2 with binding protein – uHTS hits, confirmation (AID 602473)", "type": "functional", "conditions": "read-out: EC50_Mean"}, "[13]": {"tested_on": "CHO-K1", "test": "as §1, with “Homogeneous time resolved fluorescence (HTRF)-based” for “Fluorescence-based”, “cell-based” for “cell-based high throughput”, “CHO-K1” for “CHO”", "type": "functional", "conditions": "Cricetulus griseus"}, "[14]": {"biological_target": "T3, Orexin/Hypocretin receptor type 1", "test": "Fluorescence-based cell-based high throughput dose response assay for antagonists of the orexin 1 receptor (OX1R; HCRTR1). [Related pubchem assays (depositor defined):AID434989, AID435008, AID463079, AID485270, AID492963, AID492964, AID492965, AID493232, AID504717, AID504718]", "type": "functional"}, "[15]": {"test": "HepG2 cell cytotoxicity, cytotoxicity control, set 6 (AID 602432)", "type": "functional", "conditions": "Mycobacterium tuberculosis"}, "[16]": {"test": "THP-1 cell cytotoxicity, cytotoxicity control, set 6 (AID 602433)", "type": "functional", "conditions": "Mycobacterium tuberculosis"}, "[17]": {"test": "viability loss in Vero cells – cell-based, purified and synthesized samples, set 8, cytotoxicity control for M. tuberculosis inhibitor project (AID 602431)", "type": "functional", "conditions": "Mycobacterium tuberculosis"}, "[18]": {"biological_target": "T5, V-type proton ATPase subunit c' (Saccharomyces cerevisiae S288c, UniProt P32842)", "T5 sequence (P32842 whole entry)": "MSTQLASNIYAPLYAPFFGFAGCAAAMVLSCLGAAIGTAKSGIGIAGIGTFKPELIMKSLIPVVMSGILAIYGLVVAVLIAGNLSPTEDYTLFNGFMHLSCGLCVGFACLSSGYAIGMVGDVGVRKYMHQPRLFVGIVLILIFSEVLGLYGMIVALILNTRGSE", "test": "Dose Response of Small Molecules that Regulate V-ATPase Proton Transport in Yeast using pHLuorin, Powder Set1.", "type": "functional", "conditions": "read-out: EC50_MICROM"}, "[19]": {"biological_target": "T5, V-type proton ATPase subunit c'", "test": "Dose Response with BCECF Assay for V-ATPase inhibitors that increase vacuolar pH, Powder Set 1.", "type": "functional", "conditions": "read-out: EC50_MICROM"}, "[20]": {"test": "viability of uninfected HEp-2 cells – cell-based, HTS, cytotoxicity control for RSV inhibitor project, dose response (AID 2410)", "type": "functional", "conditions": "human respiratory syncytial virus"}},
  "note": "Calls of active or inactive are those of the source.",
  "data": [
    {"smiles": "Cc1c(O)ccc2c(CN3CCN(CCO)CC3)cc(=O)oc12", "values": [
      {"measurement": "AC50", "setting": "[1]", "value": "8.66 µM (active)"}
    ]},
    {"smiles": "COc1ccc(C)cc1Nc1n[n+](-c2ccccc2)c(-c2ccc(OC)c(OC)c2OC)s1", "values": [
      {"measurement": "EC50", "setting": "[2]", "value": "2.71 µM (active)"},
      {"measurement": "EC50", "setting": "[3]", "value": "> 30 µM (not active)"},
      {"measurement": "EC50", "setting": "[4]", "value": "12.1 µM (active)"},
      {"measurement": "AC50", "setting": "[5]", "value": "11.2 µM (active)"},
      {"measurement": "EC50", "setting": "[6]", "value": "> 160 µM (inactive)"},
      {"measurement": "EC50", "setting": "[7]", "value": "0.215 µM (active)"}
    ]},
    {"smiles": "Cc1cc(-c2ccc(N3CCOCC3)cc2)nc2ccccc12", "values": [
      {"measurement": "IC50", "setting": "[8]", "value": "> 88.8 µM (inactive)"},
      {"measurement": "IC50", "setting": "[9]", "value": "2.37 µM (active)"},
      {"measurement": "IC50", "setting": "[10]", "value": "19.3 µM (inactive)"},
      {"measurement": "IC50", "setting": "[11]", "value": "> 49.8 µM (inactive)"},
      {"measurement": "EC50", "setting": "[12]", "value": "> 53 µM (inactive)"},
      {"measurement": "IC50", "setting": "[13]", "value": "> 66.2 µM (inactive)"},
      {"measurement": "IC50", "setting": "[14]", "value": "5.3 µM (active)"}
    ]},
    {"smiles": "O=C(NCc1ccc(C(=O)N2CCC(c3ccccc3)CC2)cc1)Nc1ccc(Cl)cc1", "values": [
      {"measurement": "CC50", "setting": "[15]", "value": "35 µM (active)"},
      {"measurement": "CC50", "setting": "[16]", "value": "24.7 µM (active)"},
      {"measurement": "CC50", "setting": "[17]", "value": "40.1 µM (active)"}
    ]},
    {"smiles": "O=C(c1ccc([N+](=O)[O-])o1)N1CCN(c2nc3c(Cl)cccc3s2)CC1", "values": [
      {"measurement": "EC50", "setting": "[3]", "value": "20.6 µM (active)"},
      {"measurement": "EC50", "setting": "[18]", "value": "3.53 µM (active)"},
      {"measurement": "EC50", "setting": "[19]", "value": "0.86 µM (active)"},
      {"measurement": "EC50", "setting": "[7]", "value": "0.254 µM (active)"},
      {"measurement": "CC50", "setting": "[20]", "value": "> 50 µM (active)"}
    ]}
  ]
}
